Measured values taken from ChEMBL document CHEMBL4804284.

Assays:
Parameters in all cases: scale not given: the % may be the effect or the level left
[1] = target: Tyrosine-protein kinase JAK2 (Homo sapiens) (UniProt O60674); assay: Inhibition of DNA-tagged human JAK2 JH1 catalytic domain assessed as percent of control at 50000 nM by qPCR analysis relative to control
[2] = tested on: eIF-2-alpha kinase GCN2 (Homo sapiens), Q9P2K8 [S808G]; assay: Inhibition of DNA-tagged human GCN2 S808G mutant kinase domain 2 assessed as percent of control at 50000 nM by qPCR analysis relative to control
[3] = tested on: Receptor-type tyrosine-protein kinase FLT3 (Homo sapiens), P36888 [N841I]; assay: Inhibition of DNA-tagged human FLT3 N841I mutant assessed as percent of control at 50000 nM by qPCR analysis relative to control
[4] = target: Dual specificity tyrosine-phosphorylation-regulated kinase 2 (Homo sapiens) (UniProt Q92630); assay: Inhibition of DNA-tagged human DYRK2 assessed as percent of control at 50000 nM by qPCR analysis relative to control
[5] = target: Casein kinase I isoform gamma-2 (Homo sapiens) (UniProt P78368); assay: Inhibition of DNA-tagged human CSNK1G2 assessed as percent of control at 50000 nM by qPCR analysis relative to control
[6] = target: Serine/threonine-protein kinase Chk2 (Homo sapiens) (UniProt O96017); assay: Inhibition of DNA-tagged human CHEK2 assessed as percent of control at 50000 nM by qPCR analysis relative to control
[7] = target: Cyclin-dependent kinase 4/cyclin D1 (Homo sapiens) (UniProt P11802+P24385); assay: Inhibition of DNA-tagged human CDK4/cyclin D1 assessed as percent of control at 50000 nM by qPCR analysis relative to control; format: protein-complex assay
[8] = target: Cyclin-dependent kinase 2 (Homo sapiens) (UniProt P24941); assay: Inhibition of DNA-tagged human CDK2 assessed as percent of control at 50000 nM by qPCR analysis relative to control
[9] = target: Calcium/calmodulin-dependent protein kinase type II subunit gamma (Homo sapiens) (UniProt Q13555); assay: Inhibition of DNA-tagged human CAMK2G assessed as percent of control at 50000 nM by qPCR analysis relative to control
[10] = target: Calcium/calmodulin-dependent protein kinase type II subunit delta (Homo sapiens) (UniProt Q13557); assay: Inhibition of DNA-tagged human CAMK2D assessed as percent of control at 50000 nM by qPCR analysis relative to control
[11] = target: Serine/threonine-protein kinase B-raf (Homo sapiens) (UniProt P15056); assay: Inhibition of DNA-tagged human BRAF assessed as percent of control at 50000 nM by qPCR analysis relative to control
[12] = target: BMP-2-inducible protein kinase (Homo sapiens) (UniProt Q9NSY1); assay: Inhibition of DNA-tagged human BIKE assessed as percent of control at 50000 nM by qPCR analysis relative to control
[13] = target: ALK tyrosine kinase receptor (Homo sapiens) (UniProt Q9UM73); assay: Inhibition of DNA-tagged human ALK assessed as percent of control at 50000 nM by qPCR analysis relative to control
[14] = target: Atypical kinase COQ8B, mitochondrial (Homo sapiens) (UniProt Q96D53); assay: Inhibition of DNA-tagged human ADCK4 assessed as percent of control at 50000 nM by qPCR analysis relative to control
[15] = tested on: Tyrosine-protein kinase ABL1 (Homo sapiens), P00519 [M351T]; assay: Inhibition of DNA-tagged phosphorylated human ABL1 M351T mutant assessed as percent of control at 50000 nM by qPCR analysis relative to control
[16] = tested on: Tyrosine-protein kinase ABL1 (Homo sapiens), P00519 [F317L]; assay: Inhibition of DNA-tagged non-phosphorylated human ABL1 F317L mutant assessed as percent of control at 50000 nM by qPCR analysis relative to control
[17] = target: MAP kinase-activated protein kinase 5 (Homo sapiens) (UniProt Q8IW41); assay: Inhibition of DNA-tagged human MAPKAPK5 assessed as percent of control at 50000 nM by qPCR analysis relative to control
[18] = target: Dual specificity mitogen-activated protein kinase kinase 3 (Homo sapiens) (UniProt P46734); assay: Inhibition of DNA-tagged human MEK3 assessed as percent of control at 50000 nM by qPCR analysis relative to control
[19] = target: Dual specificity mitogen-activated protein kinase kinase 7 (Homo sapiens) (UniProt O14733); assay: Inhibition of DNA-tagged human MKK7 assessed as percent of control at 50000 nM by qPCR analysis relative to control
[20] = target: Muscle, skeletal receptor tyrosine-protein kinase (Homo sapiens) (UniProt O15146); assay: Inhibition of DNA-tagged human MUSK assessed as percent of control at 50000 nM by qPCR analysis relative to control
[21] = target: Platelet-derived growth factor receptor beta (Homo sapiens) (UniProt P09619); assay: Inhibition of DNA-tagged human PDGFRB assessed as percent of control at 50000 nM by qPCR analysis relative to control
[22] = target: Phosphatidylinositol 4-kinase beta (Homo sapiens) (UniProt Q9UBF8); assay: Inhibition of DNA-tagged human PIK4CB assessed as percent of control at 50000 nM by qPCR analysis relative to control
[23] = target: Serine/threonine-protein kinase PLK2 (Homo sapiens) (UniProt Q9NYY3); assay: Inhibition of DNA-tagged human PLK2 assessed as percent of control at 50000 nM by qPCR analysis relative to control
[24] = target: cGMP-dependent protein kinase 2 (Homo sapiens) (UniProt Q13237); assay: Inhibition of DNA-tagged human PRKG2 assessed as percent of control at 50000 nM by qPCR analysis relative to control
[25] = target: Dual serine/threonine and tyrosine protein kinase (Homo sapiens) (UniProt Q6XUX3); assay: Inhibition of DNA-tagged human RIPK5 assessed as percent of control at 50000 nM by qPCR analysis relative to control
[26] = target: Activated CDC42 kinase 1 (Homo sapiens) (UniProt Q07912); assay: Inhibition of DNA-tagged human TNK2 assessed as percent of control at 50000 nM by qPCR analysis relative to control
[27] = target: NT-3 growth factor receptor (Homo sapiens) (UniProt Q16288); assay: Inhibition of DNA-tagged human TRKC assessed as percent of control at 50000 nM by qPCR analysis relative to control
[28] = target: Transient receptor potential cation channel subfamily M member 6 (Homo sapiens) (UniProt Q9BX84); assay: Inhibition of DNA-tagged human TRPM6 assessed as percent of control at 50000 nM by qPCR analysis relative to control
[29] = target: Serine/threonine-protein kinase 32B (Homo sapiens) (UniProt Q9NY57); assay: Inhibition of DNA-tagged human YANK2 assessed as percent of control at 50000 nM by qPCR analysis relative to control
Sequence of Serine/threonine-protein kinase 32B (Homo sapiens) (Q9NY57 whole entry): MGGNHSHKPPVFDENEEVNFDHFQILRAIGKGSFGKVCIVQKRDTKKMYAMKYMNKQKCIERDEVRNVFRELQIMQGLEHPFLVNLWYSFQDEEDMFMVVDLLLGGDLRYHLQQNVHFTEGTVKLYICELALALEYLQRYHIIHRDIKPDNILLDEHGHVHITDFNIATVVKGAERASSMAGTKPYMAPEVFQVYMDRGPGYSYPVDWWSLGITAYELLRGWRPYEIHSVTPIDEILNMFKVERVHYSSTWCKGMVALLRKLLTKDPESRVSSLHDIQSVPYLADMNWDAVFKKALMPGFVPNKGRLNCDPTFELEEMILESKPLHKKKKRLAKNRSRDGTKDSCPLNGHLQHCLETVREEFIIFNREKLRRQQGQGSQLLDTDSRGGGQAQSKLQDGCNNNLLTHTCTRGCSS

Sequence of Dual serine/threonine and tyrosine protein kinase (Homo sapiens) (Q6XUX3 whole entry): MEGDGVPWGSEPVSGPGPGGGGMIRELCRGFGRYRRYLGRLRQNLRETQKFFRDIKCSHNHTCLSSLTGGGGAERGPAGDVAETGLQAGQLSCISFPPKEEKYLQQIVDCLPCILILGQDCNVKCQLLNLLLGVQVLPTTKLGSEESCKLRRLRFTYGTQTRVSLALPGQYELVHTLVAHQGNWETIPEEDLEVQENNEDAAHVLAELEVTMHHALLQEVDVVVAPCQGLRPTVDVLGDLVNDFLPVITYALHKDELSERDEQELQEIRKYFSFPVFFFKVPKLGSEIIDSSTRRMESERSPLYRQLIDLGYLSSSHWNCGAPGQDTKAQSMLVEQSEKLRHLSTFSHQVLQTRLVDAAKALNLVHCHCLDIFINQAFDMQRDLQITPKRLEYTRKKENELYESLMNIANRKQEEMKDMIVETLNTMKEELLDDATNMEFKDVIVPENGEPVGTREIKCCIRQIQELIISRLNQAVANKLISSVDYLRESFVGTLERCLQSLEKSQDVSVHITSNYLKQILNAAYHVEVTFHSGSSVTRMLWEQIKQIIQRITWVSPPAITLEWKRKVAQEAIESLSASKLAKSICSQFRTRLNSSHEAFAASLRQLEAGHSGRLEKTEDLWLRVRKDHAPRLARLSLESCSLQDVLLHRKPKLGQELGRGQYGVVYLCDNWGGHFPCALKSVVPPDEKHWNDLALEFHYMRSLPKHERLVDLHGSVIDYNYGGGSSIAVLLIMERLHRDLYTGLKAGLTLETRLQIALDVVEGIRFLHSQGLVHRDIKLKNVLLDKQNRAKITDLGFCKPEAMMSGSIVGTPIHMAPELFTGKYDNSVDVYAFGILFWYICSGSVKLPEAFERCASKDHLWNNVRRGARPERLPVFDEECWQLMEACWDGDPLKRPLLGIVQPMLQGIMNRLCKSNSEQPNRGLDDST
Sequence of Dual specificity mitogen-activated protein kinase kinase 3 (Homo sapiens) (P46734 whole entry): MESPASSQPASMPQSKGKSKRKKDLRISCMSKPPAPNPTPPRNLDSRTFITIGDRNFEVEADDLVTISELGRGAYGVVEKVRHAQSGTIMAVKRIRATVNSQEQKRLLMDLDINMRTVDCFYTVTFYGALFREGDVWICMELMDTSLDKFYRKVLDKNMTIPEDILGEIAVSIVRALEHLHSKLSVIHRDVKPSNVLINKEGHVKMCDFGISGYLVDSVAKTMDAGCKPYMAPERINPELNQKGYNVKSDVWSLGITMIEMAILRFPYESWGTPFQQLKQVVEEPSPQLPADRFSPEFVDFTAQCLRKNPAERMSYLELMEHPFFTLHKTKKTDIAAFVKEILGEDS
Sequence of Dual specificity mitogen-activated protein kinase kinase 7 (Homo sapiens) (O14733 whole entry): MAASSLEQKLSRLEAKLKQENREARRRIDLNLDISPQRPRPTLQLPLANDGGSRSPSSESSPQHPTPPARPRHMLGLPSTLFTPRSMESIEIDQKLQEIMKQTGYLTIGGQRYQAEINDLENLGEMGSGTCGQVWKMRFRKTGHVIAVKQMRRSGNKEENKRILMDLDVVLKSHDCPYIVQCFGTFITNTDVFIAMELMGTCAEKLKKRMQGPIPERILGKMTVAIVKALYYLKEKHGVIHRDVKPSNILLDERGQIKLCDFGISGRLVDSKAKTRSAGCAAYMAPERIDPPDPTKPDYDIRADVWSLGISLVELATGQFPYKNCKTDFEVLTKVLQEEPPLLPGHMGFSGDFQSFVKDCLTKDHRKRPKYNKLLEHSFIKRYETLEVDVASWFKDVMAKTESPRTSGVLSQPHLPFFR
Sequence of Phosphatidylinositol 4-kinase beta (Homo sapiens) (Q9UBF8 2-816 limits assumed): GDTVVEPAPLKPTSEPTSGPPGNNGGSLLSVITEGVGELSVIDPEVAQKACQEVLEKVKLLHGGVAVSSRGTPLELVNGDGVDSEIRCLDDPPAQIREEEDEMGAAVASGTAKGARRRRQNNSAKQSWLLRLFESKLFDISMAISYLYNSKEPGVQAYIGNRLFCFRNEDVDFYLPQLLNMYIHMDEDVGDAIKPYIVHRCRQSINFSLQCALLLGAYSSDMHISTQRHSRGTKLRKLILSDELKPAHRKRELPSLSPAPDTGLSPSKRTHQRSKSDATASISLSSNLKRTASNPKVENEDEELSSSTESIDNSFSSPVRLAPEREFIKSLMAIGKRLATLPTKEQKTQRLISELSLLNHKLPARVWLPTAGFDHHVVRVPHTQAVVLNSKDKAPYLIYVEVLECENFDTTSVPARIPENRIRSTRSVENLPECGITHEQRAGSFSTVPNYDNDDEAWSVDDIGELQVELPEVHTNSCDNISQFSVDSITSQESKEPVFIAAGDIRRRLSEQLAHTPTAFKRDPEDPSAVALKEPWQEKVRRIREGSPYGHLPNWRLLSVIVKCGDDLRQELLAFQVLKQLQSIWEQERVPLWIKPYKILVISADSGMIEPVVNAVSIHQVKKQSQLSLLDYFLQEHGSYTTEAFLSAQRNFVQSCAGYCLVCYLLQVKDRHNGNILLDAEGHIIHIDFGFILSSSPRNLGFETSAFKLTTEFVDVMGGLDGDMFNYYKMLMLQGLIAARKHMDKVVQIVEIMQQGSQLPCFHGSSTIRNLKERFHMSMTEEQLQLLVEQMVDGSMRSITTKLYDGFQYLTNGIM
Sequence of Muscle, skeletal receptor tyrosine-protein kinase (Homo sapiens) (O15146 whole entry): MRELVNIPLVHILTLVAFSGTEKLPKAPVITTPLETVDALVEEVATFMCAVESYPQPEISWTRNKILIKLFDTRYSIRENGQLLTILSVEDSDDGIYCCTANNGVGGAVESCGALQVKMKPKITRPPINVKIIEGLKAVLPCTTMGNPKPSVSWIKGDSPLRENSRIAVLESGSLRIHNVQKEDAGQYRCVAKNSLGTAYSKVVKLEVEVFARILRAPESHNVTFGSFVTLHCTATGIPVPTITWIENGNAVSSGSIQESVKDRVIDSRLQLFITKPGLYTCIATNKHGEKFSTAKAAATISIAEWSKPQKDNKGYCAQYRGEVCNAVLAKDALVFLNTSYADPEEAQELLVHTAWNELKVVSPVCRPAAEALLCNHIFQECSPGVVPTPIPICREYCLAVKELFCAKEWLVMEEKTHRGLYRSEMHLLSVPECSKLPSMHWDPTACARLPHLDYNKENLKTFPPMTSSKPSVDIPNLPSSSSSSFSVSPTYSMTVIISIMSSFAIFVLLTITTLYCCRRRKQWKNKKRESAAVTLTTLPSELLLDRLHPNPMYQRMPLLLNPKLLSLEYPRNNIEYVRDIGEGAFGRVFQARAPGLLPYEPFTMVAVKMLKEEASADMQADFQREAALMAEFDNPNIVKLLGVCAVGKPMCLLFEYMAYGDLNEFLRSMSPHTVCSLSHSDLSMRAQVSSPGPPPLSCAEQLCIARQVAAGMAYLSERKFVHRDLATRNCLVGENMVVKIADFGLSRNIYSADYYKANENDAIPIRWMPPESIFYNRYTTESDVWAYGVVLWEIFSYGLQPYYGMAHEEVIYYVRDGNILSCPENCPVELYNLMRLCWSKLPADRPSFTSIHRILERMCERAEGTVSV
Sequence of MAP kinase-activated protein kinase 5 (Homo sapiens) (Q8IW41 whole entry): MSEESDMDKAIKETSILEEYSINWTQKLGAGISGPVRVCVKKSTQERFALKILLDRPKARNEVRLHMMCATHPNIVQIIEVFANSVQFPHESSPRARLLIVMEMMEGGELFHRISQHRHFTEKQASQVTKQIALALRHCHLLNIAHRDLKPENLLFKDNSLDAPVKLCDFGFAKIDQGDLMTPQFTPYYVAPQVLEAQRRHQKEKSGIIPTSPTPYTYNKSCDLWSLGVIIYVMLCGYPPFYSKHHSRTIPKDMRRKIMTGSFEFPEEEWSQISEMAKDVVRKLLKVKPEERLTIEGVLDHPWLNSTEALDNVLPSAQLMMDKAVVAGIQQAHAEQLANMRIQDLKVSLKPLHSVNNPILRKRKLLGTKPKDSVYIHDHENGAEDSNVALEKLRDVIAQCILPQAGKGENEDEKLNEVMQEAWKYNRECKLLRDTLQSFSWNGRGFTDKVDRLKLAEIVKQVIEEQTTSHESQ
Sequence of cGMP-dependent protein kinase 2 (Homo sapiens) (Q13237 whole entry): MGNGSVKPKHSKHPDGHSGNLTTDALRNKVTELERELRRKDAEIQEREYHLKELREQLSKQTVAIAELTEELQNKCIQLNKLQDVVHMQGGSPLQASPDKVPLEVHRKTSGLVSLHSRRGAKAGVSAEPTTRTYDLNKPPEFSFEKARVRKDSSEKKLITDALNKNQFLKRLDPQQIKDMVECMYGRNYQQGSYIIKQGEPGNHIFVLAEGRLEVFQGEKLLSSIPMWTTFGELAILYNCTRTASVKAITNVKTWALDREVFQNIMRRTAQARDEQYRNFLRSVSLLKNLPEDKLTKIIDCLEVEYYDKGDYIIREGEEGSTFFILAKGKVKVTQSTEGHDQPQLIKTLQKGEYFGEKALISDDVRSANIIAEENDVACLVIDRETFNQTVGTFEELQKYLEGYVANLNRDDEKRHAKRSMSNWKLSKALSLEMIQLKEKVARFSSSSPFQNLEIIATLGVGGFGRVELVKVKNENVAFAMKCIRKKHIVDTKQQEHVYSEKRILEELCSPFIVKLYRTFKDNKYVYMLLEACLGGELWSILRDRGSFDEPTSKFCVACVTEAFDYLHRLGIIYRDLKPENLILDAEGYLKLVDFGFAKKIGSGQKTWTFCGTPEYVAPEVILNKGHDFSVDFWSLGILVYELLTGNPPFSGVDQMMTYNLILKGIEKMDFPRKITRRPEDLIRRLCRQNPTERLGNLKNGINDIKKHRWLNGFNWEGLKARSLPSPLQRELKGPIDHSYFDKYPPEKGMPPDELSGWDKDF

**Q.** With `CN1C(=O)/C(=C2/C(=O)Nc3ccccc32)c2ccccc21` as the compound, how does the Activity [1] read?
**A.** Its Activity is 73%.

**Q.** And the Activity [2]?
**A.** The Activity was 88%.

**Q.** And the Activity [3]?
**A.** The Activity was 100%.

**Q.** What about the Activity [4] of the same compound?
**A.** Its Activity is 84%.

**Q.** What about the Activity [5] of the same compound?
**A.** Its Activity is 93%.

**Q.** And the Activity [6]?
**A.** Its Activity is 100%.

**Q.** And the Activity [7]?
**A.** The Activity was 81%.

**Q.** And the Activity [8]?
**A.** The Activity was 100%.

**Q.** And the Activity [9]?
**A.** Its Activity is 90%.

**Q.** What about the Activity [10] of the same compound?
**A.** Its Activity is 80%.

**Q.** And the Activity [11]?
**A.** Its Activity is 84%.

**Q.** What about the Activity [12] of the same compound?
**A.** The Activity was 95%.

**Q.** And the Activity [13]?
**A.** The Activity was 97%.

**Q.** And the Activity [14]?
**A.** Its Activity is 78%.

**Q.** And the Activity [15]?
**A.** The Activity was 73%.

**Q.** And the Activity [16]?
**A.** The Activity was 100%.

**Q.** And the Activity [17]?
**A.** Its Activity is 100%.

**Q.** And the Activity [18]?
**A.** Its Activity is 72%.

**Q.** What about the Activity [19] of the same compound?
**A.** Its Activity is 75%.

**Q.** What about the Activity [20] of the same compound?
**A.** The Activity was 86%.

**Q.** What about the Activity [21] of the same compound?
**A.** The Activity was 100%.

**Q.** What about the Activity [22] of the same compound?
**A.** The Activity was 100%.

**Q.** And the Activity [23]?
**A.** Its Activity is 94%.

**Q.** And the Activity [24]?
**A.** The Activity was 94%.

**Q.** And the Activity [25]?
**A.** The Activity was 92%.

**Q.** And the Activity [26]?
**A.** The Activity was 93%.

**Q.** And the Activity [27]?
**A.** Its Activity is 66%.

**Q.** What about the Activity [28] of the same compound?
**A.** Its Activity is 78%.

**Q.** What about the Activity [29] of the same compound?
**A.** The Activity was 100%.
